Tests used:
HCT116 MTAP null cells = assay: HCT116 MTAP null cell proliferation / viability (CellTiter-Glo, 6 days); type: cell-based; conditions: HCT116-MTAP null, 144 h, HCT116 MTAP null cells, 6 days, CellTiter-Glo; read-out: HCT-116 MTAP null IC50
Summary of the method: (§1)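 CellTiter-Glo luminescence, 6-day exposure, RPMI 1640 + 10% FBS. Dosing: 1:3 series (8-9 pts, top 1 or 10 μM) or 1:2 series (22 pts, top 10 or 50 μM), DMSO control. IC50 = 50% of control via curve fit.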

HCT116 WT cells = assay: HCT116 WT cell proliferation / viability (CellTiter-Glo, 6 days); type: cell-based; conditions: Homo sapiens, HCT-116, 144 h, HCT116 WT cells, 6 days, CellTiter-Glo; read-out: HCT-116 WT IC50
Summary of the method: as §1

Row | Structure (SMILES) | IC50 (HCT116 MTAP null cells) [nM] | IC50 (HCT116 WT cells) [nM]
1 | CC(C)N(Cc1ccc(Cl)cn1)C(=O)c1ccc2nc(N)c3c(c2c1)COC3 [Example 717, 4-amino-N-((5-chloro-2-pyridinyl)methyl)-N-(2-propanyl)-1,3-dihydrofuro[3,4-c]quinoline-8-carboxamide] | 609 | 7760
2 | CC(C)N(Cc1ccc(Cl)cn1)C(=O)c1cc2c3c(c(N)nc2cn1)COC3 [Example 718, 4-amino-N-((5-chloro-2-pyridinyl)methyl)-N-(2-propanyl)-1,3-dihydrofuro[3,4-c][1,7]naphthyridine-8-carboxamide] | 281 | 16400
3 | CCN(Cc1ncn(C)n1)C(=O)c1ccc2nc(N)c3c(c2c1)CO[C@@H]3C [Example 720, (3R)-4-amino-N-ethyl-3-methyl-N-((1-methyl-1H-1,2,4-triazol-3-yl)methyl)-1,3-dihydrofuro[3,4-c]quinoline-8-carboxamide] | 14900 | > 50000
4 | CCN(Cc1ccc(OC(F)F)nn1)C(=O)c1ccc2nc(N)c3c(c2c1)COC3 [Example 723, 4-amino-N-((6-(difluoromethoxy)-3-pyridazinyl)methyl)-N-ethyl-1,3-dihydrofuro[3,4-c]quinoline-8-carboxamide] | 157 | 6020
5 | CCN(Cc1ccc(OC(F)F)nn1)C(=O)c1cc2c3c(c(N)nc2cc1F)COC3 [Example 724, 4-amino-N-((6-(difluoromethoxy)-3-pyridazinyl)methyl)-N-ethyl-7-fluoro-1,3-dihydrofuro[3,4-c]quinoline-8-carboxamide] | 54 | 2440
6 | COC[C@@H](C)N(Cc1ccc(C(F)(F)F)cn1)C(=O)c1cc2c3c(c(N)nc2cn1)COC3 [Example 728, 4-amino-N-((2R)-1-methoxy-2-propanyl)-N-((5-(trifluoromethyl)-2-pyridinyl)methyl)-1,3-dihydrofuro[3,4-c][1,7]naphthyridine-8-carboxamide] | 47 | 663
7 | Nc1nc2cc(F)c(C(=O)N(Cc3ccc(C(F)(F)F)cn3)c3cnn(C(F)(F)F)c3)cc2c2c1COC2 [Example 729, 4-amino-7-fluoro-N-(1-(trifluoromethyl)-1H-pyrazol-4-yl)-N-((5-(trifluoromethyl)-2-pyridinyl)methyl)-1,3-dihydrofuro[3,4-c]quinoline-8-carboxamide] | 19 | 534
8 | Cn1ncc2c3cc(C(=O)N(Cc4ccc(C(F)(F)F)nn4)CC4CC4)c(F)cc3nc(N)c21 [Example 731, 4-amino-N-(cyclopropylmethyl)-7-fluoro-3-methyl-N-((6-(trifluoromethyl)-3-pyridazinyl)methyl)-3H-pyrazolo[3,4-c]quinoline-8-carboxamide] | 47 | 2090
9 | Nc1nc2cnc(C(=O)N(Cc3ccc(C(F)(F)F)cn3)c3cnn(C(F)(F)F)c3)cc2c2c1COC2 [Example 732, 4-amino-N-(1-(trifluoromethyl)-1H-pyrazol-4-yl)-N-((5-(trifluoromethyl)-2-pyridinyl)methyl)-1,3-dihydrofuro[3,4-c][1,7]naphthyridine-8-carboxamide] | 87 | 2850
10 | CC(C)N(Cc1ccc(C(F)(F)F)cc1)C(=O)c1cc2c3c(c(N)nc2cn1)COC3 [Example 733, 4-amino-N-(2-propanyl)-N-(4-(trifluoromethyl)benzyl)-1,3-dihydrofuro[3,4-c][1,7]naphthyridine-8-carboxamide] | 290 | 6300
11 | Nc1nc2cnc(C(=O)N(Cc3ccc(C(F)(F)F)cc3)C3CC3)cc2c2c1COC2 [Example 734, 4-amino-N-cyclopropyl-N-(4-(trifluoromethyl)benzyl)-1,3-dihydrofuro[3,4-c][1,7]naphthyridine-8-carboxamide] | 383 | 14400
12 | CCN(C(=O)c1cc2c3c(c(N)nc2cc1Cl)COC3)[C@H](C)c1ccc(C(F)(F)F)cn1 [Example 738, 4-amino-7-chloro-N-ethyl-N-((1R)-1-(5-(trifluoromethyl)-2-pyridinyl)ethyl)-1,3-dihydrofuro[3,4-c]quinoline-8-carboxamide] | 13 | 430
13 | Cn1cc(N(Cc2ccc(C(F)(F)F)cn2)C(=O)c2cc3c(cc2F)nc(N)c2cnn(C)c23)cn1 [Example 740, 4-amino-7-fluoro-1-methyl-N-(1-methyl-1H-pyrazol-4-yl)-N-((5-(trifluoromethyl)-2-pyridinyl)methyl)-1H-pyrazolo[4,3-c]quinoline-8-carboxamide] | 5 | 100
14 | CCN(C(=O)c1ccc2nc(N)c3c(c2c1)COC3)[C@H](C)c1ccc(C(F)(F)F)cc1F [Example 742, 4-amino-N-ethyl-N-((1R)-1-(2-fluoro-4-(trifluoromethyl)phenyl)ethyl)-1,3-dihydrofuro[3,4-c]quinoline-8-carboxamide] | 66 | 2500
15 | CCN(C(=O)c1ccc2nc(N)c3c(c2c1)COC3)[C@H](C)c1ccc(C(F)(F)F)cc1 [Example 743, 4-amino-N-ethyl-N-((1R)-1-(4-(trifluoromethyl)phenyl)ethyl)-1,3-dihydrofuro[3,4-c]quinoline-8-carboxamide] | 15 | 1090
16 | CCOc1ccc(CN(CC)C(=O)c2cc3c4c(c(N)nc3cc2F)COC4)nn1 [Example 747, 4-amino-N-((6-ethoxy-3-pyridazinyl)methyl)-N-ethyl-7-fluoro-1,3-dihydrofuro[3,4-c]quinoline-8-carboxamide] | 161 | 5090
17 | CCOc1ccc(CN(C(=O)c2cc3c4c(c(N)nc3cn2)COC4)[C@H](C)c2ncccn2)nn1 [Example 749, 4-amino-N-((6-ethoxy-3-pyridazinyl)methyl)-N-((1R)-1-(2-pyrimidinyl)ethyl)-1,3-dihydrofuro[3,4-c][1,7]naphthyridine-8-carboxamide] | 177 | 3340

The next lines start with the values.

Row | IC50 (HCT116 MTAP null cells) [nM] | IC50 (HCT116 WT cells) [nM] | Structure (SMILES)
18 | 209 | 9410 | Nc1nc2cnc(C(=O)N(Cc3ccc(C(F)(F)F)nn3)C3CCC3)cc2c2c1COC2 [Example 721, 4-amino-N-cyclobutyl-N-((6-(trifluoromethyl)-3-pyridazinyl)methyl)-1,3-dihydrofuro[3,4-c][1,7]naphthyridine-8-carboxamide]
19 | 85 | 3350 | C[C@H]1OCc2c1c(N)nc1ccc(C(=O)N(Cc3ccc(C(F)(F)F)nn3)C3CCC3)cc21 [Example 722, (3R)-4-amino-N-cyclobutyl-3-methyl-N-((6-(trifluoromethyl)-3-pyridazinyl)methyl)-1,3-dihydrofuro[3,4-c]quinoline-8-carboxamide]
20 | 109 | 7520 | CCN(Cc1ccc(OC(F)F)nn1)C(=O)c1ccc2nc(N)c3c(c2c1)CO[C@@H]3C [Example 726, (3R)-4-amino-N-((6-(difluoromethoxy)-3-pyridazinyl)methyl)-N-ethyl-3-methyl-1,3-dihydrofuro[3,4-c]quinoline-8-carboxamide]
21 | 17 | 620 | Nc1nc2cc(F)c(C(=O)N(Cc3ccc(C(F)(F)F)nn3)CC3CC3)cc2c2c1COC2 [Example 730, 4-amino-N-(cyclopropylmethyl)-7-fluoro-N-((6-(trifluoromethyl)-3-pyridazinyl)methyl)-1,3-dihydrofuro[3,4-c]quinoline-8-carboxamide]
22 | 5500 | 36200 | C[C@@H](c1ccc(C(F)(F)F)cn1)N(C(=O)c1ccc2nc(N)c3c(c2c1)COC3)C1CC1 [Example 735, 4-amino-N-cyclopropyl-N-((1S)-1-(5-(trifluoromethyl)-2-pyridinyl)ethyl)-1,3-dihydrofuro[3,4-c]quinoline-8-carboxamide]
23 | 127 | 4890 | C[C@H](c1ccc(C(F)(F)F)cn1)N(C(=O)c1ccc2nc(N)c3c(c2c1)COC3)C1CC1 [Example 736, 4-amino-N-cyclopropyl-N-((1R)-1-(5-(trifluoromethyl)-2-pyridinyl)ethyl)-1,3-dihydrofuro[3,4-c]quinoline-8-carboxamide]
24 | 42 | 1020 | Nc1nc2cc(Cl)c(C(=O)N(Cc3ccc(C(F)(F)F)nn3)CC3CC3)cc2c2c1COC2 [Example 741, 4-amino-7-chloro-N-(cyclopropylmethyl)-N-((6-(trifluoromethyl)-3-pyridazinyl)methyl)-1,3-dihydrofuro[3,4-c]quinoline-8-carboxamide]
25 | 38 | 967 | C[C@H](c1ccc(C(F)(F)F)nn1)N(C(=O)c1cc2c3c(c(N)nc2cc1Cl)COC3)C1CCC1 [Example 744, 4-amino-7-chloro-N-cyclobutyl-N-((1R)-1-(6-(trifluoromethyl)-3-pyridazinyl)ethyl)-1,3-dihydrofuro[3,4-c]quinoline-8-carboxamide]
26 | 246 | 14800 | C[C@H](c1ccc(C(F)(F)F)nn1)N(C(=O)c1ccc2nc(N)c3c(c2c1)COC3)C1CCC1 [Example 745, 4-amino-N-cyclobutyl-N-((1R)-1-(6-(trifluoromethyl)-3-pyridazinyl)ethyl)-1,3-dihydrofuro[3,4-c]quinoline-8-carboxamide]
27 | 34 | 3460 | C[C@H](c1ccc(C(F)(F)F)cn1)N(C(=O)c1ccc2nc(N)c3c(c2c1)CO[C@@H]3C)C1CC1 [Example 746, (3R)-4-amino-N-cyclopropyl-3-methyl-N-((1R)-1-(5-(trifluoromethyl)-2-pyridinyl)ethyl)-1,3-dihydrofuro[3,4-c]quinoline-8-carboxamide]
28 | 5350 | 36400 | CCN(C(=O)c1ccc2nc(N)c3c(c2c1)COC3)[C@H](c1ccc(C(F)(F)F)cn1)C1CC1 [Example 748, 4-amino-N-((S)-cyclopropyl(5-(trifluoromethyl)-2-pyridinyl)methyl)-N-ethyl-1,3-dihydrofuro[3,4-c]quinoline-8-carboxamide]

From patent US20240101570A1 (AMGEN INC., priority 2020, published 2024)
